Assay results from patent US20260083723A1, “THERAPEUTIC AGENT OR PROPHYLACTIC AGENT FOR AMYOTROPHIC LATERAL SCLEROSIS” (Toray Industries, Inc., priority 2022, published 2026).

Test: In vitro radical scavenging action (DPPH method)
Conditions: not given
Protocol: The radical scavenging action of a test compound can be evaluated using an in vitro test and, for example, by a method (Antioxidants, 2019, vol. 258) using a stable radical, 1,1-diphenyl-2-picrylhydrazil (DPPH).
Radical scavenging action was evaluated using the DPPH method in the compound of Comparative Example 1, which is a tetrahydroquinoxaline derivative, and in the tetrahydroquinoline derivative (I) or a pharmaceutically acceptable salt thereof. The DPPH method was performed using an antioxidant capacity measurement kit (Dojindo Laboratories).
A test compound was dissolved in DMSO, and the resulting solution was then mixed with an assay buffer and a DPPH solution, which are included in the kit, to a total volume of 200 μL to obtain a final concentration of 10% DMSO, and the reaction was allowed to proceed. Wells added with […] ferrostatin-1, a radical scavenger, were grouped as “control,” and wells not added with test compound were grouped as “background”. The test compound was serially diluted 3-fold starting from a maximum concentration of 100 μmol/L, and the diluted test compound (1.2, 3.7, 11.1, 33.3, or 100 μmol/L) was added and allowed to react at room temperature. Thirty minutes after the reaction, the absorbance at 517 nm was measured, and the average absorbance value was calculated (N=2). The radical scavenging action of the test compound (hereinafter referred to as radical scavenging rate, %) was calculated based on Equation 2. The EC50 value of the test compound was calculated from the radical scavenging rate.
A note “no detection of radical scavenging action (N.D.),” is given to compounds with a EC50 of >100 μmol/L.

Row | Structure (SMILES) | radical scavenging action (in words)
1 | c1ccc(C2CNc3ccccc3N2)cc1 (stereo not drawn) [Comparative Example 1, 2-phenyl-1,2,3,4-tetrahydroquinoxaline, reference compound] | exhibited radical scavenging action

Same assay, conditions: 1.2-100 μmol/L, 30 minutes at room temperature, absorbance at 517 nm

Row | Structure (SMILES) | EC50 [µM]
2 | c1ccc([C@H]2CCc3ccccc3N2)cc1 [Example 2, (R)-2-phenyl-1,2,3,4-tetrahydroquinoline] | > 100
3 | c1ccc([C@@H]2CCc3ccccc3N2)cc1 [Example 3, (S)-2-phenyl-1,2,3,4-tetrahydroquinoline] | > 100
4 | CC(=O)Nc1ccc(C2CCc3ccccc3N2)cc1 (stereo not drawn) [Example 21, N-(4-(1,2,3,4-tetrahydroquinolin-2-yl)phenyl)acetamide] | > 100
5 | Fc1ccc(C2CCc3ccccc3N2)cc1 (stereo not drawn) [Example 26, 2-(4-fluorophenyl)-1,2,3,4-tetrahydroquinoline] | > 100
6 | FC(F)(F)Oc1ccc(C2CCc3ccccc3N2)cc1 (stereo not drawn) [Example 31, 2-(4-(trifluoromethoxy)phenyl)-1,2,3,4-tetrahydroquinoline] | > 100
7 | NS(=O)(=O)c1ccc(C2CCc3ccccc3N2)cc1 (stereo not drawn) [Example 32, 4-(1,2,3,4-tetrahydroquinolin-2-yl)benzenesulfonamide] | > 100
8 | NS(=O)(=O)c1ccc(C2CCc3ccccc3N2)cc1 (stereo not drawn) [Example 33, 4-(1,2,3,4-tetrahydroquinolin-2-yl)benzenesulfonamide] | > 100
9 | NS(=O)(=O)c1ccc(C2CCc3ccccc3N2)cc1 (stereo not drawn) [Example 34, 4-(1,2,3,4-tetrahydroquinolin-2-yl)benzenesulfonamide] | > 100
10 | NC(=O)c1ccc(C2CCc3ccccc3N2)cc1 (stereo not drawn) [Example 37, 4-(1,2,3,4-tetrahydroquinolin-2-yl)benzamide] | > 100
11 | OCc1ccc2c(c1)CCC(c1ccccc1)N2 (stereo not drawn) [Example 58, (2-phenyl-1,2,3,4-tetrahydroquinolin-6-yl)methanol] | > 100
12 | NC(=O)Cc1ccc2c(c1)CCC(c1ccccc1)N2 (stereo not drawn) [Example 60, 2-(2-phenyl-1,2,3,4-tetrahydroquinolin-6-yl)acetamide] | > 100
13 | CC(C)(C)NC(=O)Cc1ccc2c(c1)CCC(c1ccccc1)N2 (stereo not drawn) [Example 61, N-(tert-butyl)-2-(2-phenyl-1,2,3,4-tetrahydroquinolin-6-yl)acetamide] | > 100
14 | O=C(Cc1ccc2c(c1)CCC(c1ccccc1)N2)N1CC(O)C1 (stereo not drawn) [Example 62, 1-(3-hydroxyazetidin-1-yl)-2-(2-phenyl-1,2,3,4-tetrahydroquinolin-6-yl)ethan-1-one] | > 100
15 | Fc1cccc2c1CCC(c1ccccc1)N2 (stereo not drawn) [Example 66, 5-fluoro-2-phenyl-1,2,3,4-tetrahydroquinoline] | > 100
16 | Clc1cccc2c1CCC(c1ccccc1)N2 (stereo not drawn) [Example 67, 5-chloro-2-phenyl-1,2,3,4-tetrahydroquinoline] | > 100
17 | Fc1ccc2c(c1)NC(c1ccccc1)CC2 (stereo not drawn) [Example 68, 7-fluoro-2-phenyl-1,2,3,4-tetrahydroquinoline] | > 100

Results, then the compound that gave them:

Row | EC50 [µM] | Structure (SMILES)
18 | 8.54 | c1ccc(C2CNc3ccccc3N2)cc1 (stereo not drawn) [Comparative Example 1, 2-phenyl-1,2,3,4-tetrahydroquinoxaline, reference compound]
19 | > 100 | CS(=O)(=O)c1ccc(C2CCc3ccccc3N2)cc1 (stereo not drawn) [Example 16, 2-(4-(methylsulfonyl)phenyl)-1,2,3,4-tetrahydroquinoline]
20 | > 100 | FC(F)(F)c1ccc(C2CCc3ccccc3N2)cc1 (stereo not drawn) [Example 29, 2-(4-(trifluoromethyl)phenyl)-1,2,3,4-tetrahydroquinoline]
21 | > 100 | N#Cc1ccc(C2CCc3ccccc3N2)cc1 (stereo not drawn) [Example 35, 4-(1,2,3,4-tetrahydroquinolin-2-yl)benzonitrile]
22 | > 100 | NC(=O)c1ccc(C2CCc3ccccc3N2)cc1 (stereo not drawn) [Example 36, 4-(1,2,3,4-tetrahydroquinolin-2-yl)benzamide]
23 | > 100 | NC(=O)c1ccc(C2CCc3ccccc3N2)cc1 (stereo not drawn) [Example 38, 4-(1,2,3,4-tetrahydroquinolin-2-yl)benzamide]
24 | > 100 | Clc1ccc2c(c1)NC(c1ccccc1)CC2 (stereo not drawn) [Example 69, 7-chloro-2-phenyl-1,2,3,4-tetrahydroquinoline]
